Results taken from patent publication US11873298B2, “Compounds and uses thereof” (JANSSEN PHARMACEUTICA NV, priority 2017, dated 2024).
pEC50, pIC50: −log10 of the molar value. Values joined by “and” are separate entries in the source; they are usually repeats but may differ in a detail not shown here. Equal values may be shown once.

Key:
SCD1 = biological target: T1, SCD1 (Homo sapiens, UniProt O00767); assay: Growth inhibition of humanized yeast strain expressing SCD1 as sole desaturase; assay type: cell-based; details: humanized yeast strain expressing SCD1
T1 construct: host or cells: S. cerevisiae ole1Δ strain (W303 pdr1Δ pdr3Δ background), plasmid pRS316 with TDH3 promoter and CYC1 terminator
T1 sequence (O00767 1-359): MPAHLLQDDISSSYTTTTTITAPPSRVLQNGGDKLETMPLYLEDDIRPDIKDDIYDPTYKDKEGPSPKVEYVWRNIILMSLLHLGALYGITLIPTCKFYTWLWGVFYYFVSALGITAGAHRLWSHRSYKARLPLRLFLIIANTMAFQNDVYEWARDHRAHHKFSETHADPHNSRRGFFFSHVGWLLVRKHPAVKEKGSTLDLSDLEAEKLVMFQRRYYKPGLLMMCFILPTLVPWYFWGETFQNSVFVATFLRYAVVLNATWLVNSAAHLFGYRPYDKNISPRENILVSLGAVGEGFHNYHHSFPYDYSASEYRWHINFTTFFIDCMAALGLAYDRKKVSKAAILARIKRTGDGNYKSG
How it was run: (§1)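 ole1Δ yeast (W303 pdr1Δ pdr3Δ background) carrying plasmid-borne Ole1, SCD1 or SCD5, grown in uracil-free media; cultures pre-grown in raffinose, seeded at 2× density 0.02 in galactose media with compound. Growth read as OD600 after 24 h at 30° C. for Ole1, 40 h for SCD1/SCD5.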

SCD5 = biological target: T2, SCD5 (Homo sapiens, UniProt Q86SK9); assay: Growth inhibition of humanized yeast strain expressing SCD5 as sole desaturase; assay type: cell-based; details: humanized yeast strain expressing SCD5
T2 construct: host or cells: S. cerevisiae ole1Δ strain (W303 pdr1Δ pdr3Δ background), plasmid pRS316 with TDH3 promoter and CYC1 terminator
T2 sequence (Q86SK9 1-330): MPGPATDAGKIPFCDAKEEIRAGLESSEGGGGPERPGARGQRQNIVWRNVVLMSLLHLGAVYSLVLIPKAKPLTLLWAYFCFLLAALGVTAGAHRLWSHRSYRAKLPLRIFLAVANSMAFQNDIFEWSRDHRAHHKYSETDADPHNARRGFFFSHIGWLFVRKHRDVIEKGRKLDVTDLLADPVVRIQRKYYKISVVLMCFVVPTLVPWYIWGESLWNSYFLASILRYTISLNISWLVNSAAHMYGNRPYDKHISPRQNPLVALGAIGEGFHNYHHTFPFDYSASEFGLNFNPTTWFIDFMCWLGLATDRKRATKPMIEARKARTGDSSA
How it was run: as §1

Ole1 = biological target: T3, Ole1 (Saccharomyces cerevisiae, UniProt P21147); assay: Growth inhibition of yeast strain expressing Ole1 as sole desaturase; assay type: cell-based; details: yeast strain expressing Ole1 as sole desaturase
T3 construct: expressed in transfected cells; host or cells: S. cerevisiae ole1Δ strain (W303 pdr1Δ pdr3Δ background), plasmid pRS316 with TDH3 promoter and CYC1 terminator
T3 sequence (P21147 1-510): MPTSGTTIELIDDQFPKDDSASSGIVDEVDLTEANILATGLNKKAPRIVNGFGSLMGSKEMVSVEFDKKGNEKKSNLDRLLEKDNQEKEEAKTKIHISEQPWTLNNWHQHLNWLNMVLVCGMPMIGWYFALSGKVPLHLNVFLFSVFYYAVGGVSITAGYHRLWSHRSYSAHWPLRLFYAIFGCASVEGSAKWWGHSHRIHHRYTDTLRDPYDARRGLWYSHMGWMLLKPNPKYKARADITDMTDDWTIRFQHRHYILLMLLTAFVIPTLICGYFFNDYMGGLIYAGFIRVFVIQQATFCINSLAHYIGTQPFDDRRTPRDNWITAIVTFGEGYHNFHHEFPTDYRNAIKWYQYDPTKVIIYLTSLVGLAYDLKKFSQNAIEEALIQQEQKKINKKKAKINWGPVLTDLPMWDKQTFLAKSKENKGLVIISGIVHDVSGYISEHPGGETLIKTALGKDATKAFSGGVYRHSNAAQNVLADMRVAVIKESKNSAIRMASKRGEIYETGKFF
How it was run: as §1

[1] = test system: yeast strains expressing the human α-synuclein; assay: Yeast α-synuclein toxicity rescue assay (OD600 growth); details: 40 h; for pEC50: read-out: α-Syn EC50; for Emax: read-out: α-Syn Emax

For `Cc1nn(C)c2cc(-c3noc(C4CCN(C(=O)CNC(=O)c5ccccc5)CC4)n3)cnc12` [Compound 137], the pIC50 (SCD1) was < 4.35, the “SCD1 % Max Inhibition” value (SCD1) was 90.19% and the pIC50 (SCD5) was 4.65. For the same compound, the “SCD5 % Max Inhibition” value (SCD5) was 50.61%, the pIC50 (Ole1) was < 4.35 and the “OLE1 % Max Inhibition” value (Ole1) was 96.83%. The pEC50 [1] was 5.98 and the Emax [1] was 376%.

With `Cc1nn(C)c2cc(-c3noc(C4CCN(C(=O)C5CC(=O)N(c6ccccc6)C5)CC4)n3)cnc12` (stereo not drawn) [Compound 138] the pIC50 (SCD1) was 4.43, the “SCD1 % Max Inhibition” value (SCD1) was 54.49% and the pIC50 (SCD5) was < 4.35. The “SCD5 % Max Inhibition” value (SCD5) was 4.57%, the pIC50 (Ole1) was < 4.35 and the “OLE1 % Max Inhibition” value (Ole1) was 3.94%. The pEC50 [1] was 5.89 and the Emax [1] was 353%.

For `Cc1nn(C)c2cc(-c3noc(C4CCN(C(=O)C5CC(=O)N(c6ccc(C#N)cc6)C5)CC4)n3)ccc12` (stereo not drawn) [Compound 139], the pIC50 (SCD1) was < 4.35, the “SCD1 % Max Inhibition” value (SCD1) was 87.50% and the pIC50 (SCD5) was < 4.35. For the same compound, the “SCD5 % Max Inhibition” value (SCD5) was 75.11%, the pIC50 (Ole1) was < 4.35 and the “OLE1 % Max Inhibition” value (Ole1) was 25.30%. For the same compound, the pEC50 [1] was 7.68 and the Emax [1] was 437%.

In the case of `CCOc1ccc(-c2noc(C3CCN(C(=O)C(C)N4Cc5ccccc5C4=O)CC3)n2)cc1OC` (stereo not drawn) [Compound 140], the pIC50 (SCD1) was < 4.35, the “SCD1 % Max Inhibition” value (SCD1) was 77.37% and 75.00% and the “SCD5 % Max Inhibition” value (SCD5) was 3.46% and 10.16%. For the same compound, the pIC50 (Ole1) was < 4.35, the “OLE1 % Max Inhibition” value (Ole1) was 3.96% and 4.98% and the pEC50 [1] was 7.31. It also gave an Emax [1] of 322%.

For `Cc1nn(C)c2cc(-c3noc(C4CCN(C(=O)C(C)N5Cc6ccccc6C5=O)CC4)n3)ccc12` (stereo not drawn) [Compound 141], the pIC50 (SCD1) was < 4.35, the “SCD1 % Max Inhibition” value (SCD1) was 86.53% and the pIC50 (SCD5) was < 4.35. The “SCD5 % Max Inhibition” value (SCD5) was 78.91%, the pIC50 (Ole1) was < 4.35 and the “OLE1 % Max Inhibition” value (Ole1) was 1.77%. The pEC50 [1] was 7.72 and the Emax [1] was 259%.

In the case of `CCOc1ccc(-c2noc(C3CCN(C(=O)CN4Cc5ccccc5C4=O)CC3)n2)nc1OC` [Compound 142], the pIC50 (SCD1) was < 4.35, the “SCD1 % Max Inhibition” value (SCD1) was 80.83% and the pIC50 (SCD5) was < 4.35. For the same compound, the “SCD5 % Max Inhibition” value (SCD5) was 26.00%, the pIC50 (Ole1) was < 4.35 and the “OLE1 % Max Inhibition” value (Ole1) was 1.11%. For the same compound, the pEC50 [1] was 5.12 and the Emax [1] was 319%.

With `COc1ccc(-c2noc(C3CCN(C(=O)CNC(=O)N4CCCCC4)CC3)n2)cc1OC` [Compound 143] the pIC50 (SCD1) was < 4.35, the “SCD1 % Max Inhibition” value (SCD1) was 79.38% and the pIC50 (SCD5) was < 4.35. For the same compound, the “SCD5 % Max Inhibition” value (SCD5) was 96.06%, the pIC50 (Ole1) was < 4.35 and the “OLE1 % Max Inhibition” value (Ole1) was 95.01%. It also gave a pEC50 [1] of 4.77 and an Emax [1] of 73%.

With `COc1ccc(-c2noc(C3CCN(C(=O)CNC(=O)c4ccccc4OC)CC3)n2)cc1OC` [Compound 144] the pIC50 (SCD1) was < 4.35, the “SCD1 % Max Inhibition” value (SCD1) was 79.00% and the pIC50 (SCD5) was < 4.35. The “SCD5 % Max Inhibition” value (SCD5) was 84.27%, the pIC50 (Ole1) was < 4.35 and the “OLE1 % Max Inhibition” value (Ole1) was 100.96%. The pEC50 [1] was 6.28 and the Emax [1] was 537%.

In the case of `COc1ccc(-c2noc(C3CCN(C(=O)CNC(=O)c4ccccn4)CC3)n2)cc1OC` [Compound 145], the pIC50 (SCD1) was < 4.35, the “SCD1 % Max Inhibition” value (SCD1) was 78.31% and the pIC50 (SCD5) was < 4.35. For the same compound, the “SCD5 % Max Inhibition” value (SCD5) was 86.51%, the pIC50 (Ole1) was 4.80 and the “OLE1 % Max Inhibition” value (Ole1) was 51.17%. It also gave a pEC50 [1] of 7.00 and an Emax [1] of 432%.

With `Cc1nn(C)c2nc(-c3noc(C4CCN(C(=O)CN5Cc6ccccc6C5=O)CC4)n3)ccc12` [Compound 146] the pIC50 (SCD1) was 4.42, the “SCD1 % Max Inhibition” value (SCD1) was 60.81% and the pIC50 (SCD5) was < 4.35. The “SCD5 % Max Inhibition” value (SCD5) was 25.62%, the pIC50 (Ole1) was < 4.35 and the “OLE1 % Max Inhibition” value (Ole1) was 3.28%. The pEC50 [1] was 5.71 and the Emax [1] was 516%.

`CCOc1cnc(-c2noc(C3CCN(C(=O)CN4Cc5ccccc5C4=O)CC3)n2)cc1OC` [Compound 147] was tested, and the pIC50 (SCD1) was < 4.35, the “SCD1 % Max Inhibition” value (SCD1) was 74.14% and the pIC50 (SCD5) was < 4.35. The “SCD5 % Max Inhibition” value (SCD5) was 86.70%, the pIC50 (Ole1) was < 4.35 and the “OLE1 % Max Inhibition” value (Ole1) was 9.34%. The pEC50 [1] was 4.75 and the Emax [1] was 453%.
